According to patent publication US20200048267A1, “OGA INHIBITOR COMPOUNDS” (Janssen Pharmaceutica NV, priority 2017, published 2020):

What was measured:
[1] = target: T1, OGA (Homo sapiens, UniProt O60502); experiment: OGA cellular assay (ICC detection of O-GlcNAcylated proteins in HEK293 cells inducible for P301L mutant human Tau); assay type: cell-based; conditions: 6 hours incubation; for EC50: read-out: CELLULAR hOGA, pEC50 (converted)
T1 construct: HEK293 cells inducible for P301L mutant human Tau (isoform 2N4R) were established at Janssen; endogenous in cells; host or cells: HEK293 cells inducible for P301L mutant human Tau (2N4R)
T1 sequence (O60502 1-916): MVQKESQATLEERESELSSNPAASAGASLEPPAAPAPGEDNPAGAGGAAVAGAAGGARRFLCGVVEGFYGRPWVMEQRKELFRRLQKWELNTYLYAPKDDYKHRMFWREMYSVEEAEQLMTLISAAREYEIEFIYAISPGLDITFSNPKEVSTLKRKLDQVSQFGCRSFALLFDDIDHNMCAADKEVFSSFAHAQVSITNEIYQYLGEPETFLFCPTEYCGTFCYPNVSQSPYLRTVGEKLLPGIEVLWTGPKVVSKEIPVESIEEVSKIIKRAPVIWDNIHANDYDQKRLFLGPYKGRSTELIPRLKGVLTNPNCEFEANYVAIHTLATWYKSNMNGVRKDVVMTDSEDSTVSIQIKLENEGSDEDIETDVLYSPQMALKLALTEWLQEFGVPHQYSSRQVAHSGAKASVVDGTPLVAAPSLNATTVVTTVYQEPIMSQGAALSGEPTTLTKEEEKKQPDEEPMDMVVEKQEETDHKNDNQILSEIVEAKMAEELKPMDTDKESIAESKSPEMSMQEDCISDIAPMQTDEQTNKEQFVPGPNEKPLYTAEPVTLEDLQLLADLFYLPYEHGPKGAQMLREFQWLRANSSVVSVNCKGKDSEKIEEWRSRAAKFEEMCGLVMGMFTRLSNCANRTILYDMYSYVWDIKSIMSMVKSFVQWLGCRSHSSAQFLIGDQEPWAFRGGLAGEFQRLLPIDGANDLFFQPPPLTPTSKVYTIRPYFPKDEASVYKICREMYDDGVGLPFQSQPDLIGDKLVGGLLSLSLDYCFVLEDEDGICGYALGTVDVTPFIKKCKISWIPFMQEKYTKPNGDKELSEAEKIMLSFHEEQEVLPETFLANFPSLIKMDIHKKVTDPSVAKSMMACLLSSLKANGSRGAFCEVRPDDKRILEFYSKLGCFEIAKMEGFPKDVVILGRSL
Description: HEK293 cells inducible for P301L mutant human Tau (isoform 2N4R) were established at Janssen. Thiamet-G was used for both plate validation (high control) and as reference compound (reference EC50 assay validation). OGA inhibition is evaluated through the immunocytochemical (ICC) detection of O-GlcNAcylated proteins by the use of a monoclonal antibody (CTD110.6; Cell Signaling, #9875) detecting O-GlcNAcylated residues as previously described (Dorfmueller et al. 2010 Chemistry & biology, 17:1250). Inhibition of OGA will result in an increase of O-GlcNAcylated protein levels resulting in an increased signal in the experiment. Cell nuclei are stained with Hoechst to give a cell culture quality control and a rough estimate of immediate compounds toxicity, if any. ICC pictures are imaged with a Perkin Elmer Opera Phenix plate microscope and quantified with the provided software Perkin Elmer Harmony 4.1.
Cells were propagated in DMEM high Glucose (Sigma, #D5796) following standard procedures. 2 days before the cell assay cells are split, counted and seeded in Poly-D-Lysine (PDL) coated 96-wells (Greiner, #655946) plate at a cell density of 12,000 cells per cm^2 (4,000 cells per well) in 100 µl of Assay Medium (Low Glucose medium is used to reduce basal levels of GlcNAcylation) (Park et al. 2014 The Journal of biological chemistry 289:13519). At the day of compound test medium from assay plates was removed and replenished with 90 μl of fresh Assay Medium. 10 μl of compounds at a 10 fold final concentration were added to the wells. Plates were centrifuged shortly before incubation in the cell incubator for 6 hours. DMSO concentration was set to 0.2%. Medium is discarded by applying vacuum. For staining of cells medium was removed and cells washed once with 100 μl D-PBS (Sigma, #D8537). From next step onwards unless other stated assay volume was always 50 μl and incubation was performed without agitation and at room temperature. Cells were fixed in 50 μl of a 4% paraformaldehyde (PFA, Alpha aesar, # 043368) PBS solution for 15 minutes at room temperature. […] Before analysis samples were washed 2 times manually for 5 minutes in ICC base buffer.
Imaging is performed using Perkin Elmer Phenix Opera using a water 20× objective and recording 9 fields per well. Intensity readout at 488 nm is used as a measure of O-GlcNAcylation level of total proteins in wells. To assess potential toxicity of compounds nuclei were counted using the Hoechst staining. IC50-values are calculated using parametric non-linear regression model fitting. As a maximum inhibition Thiamet G at a 200 uM concentration is present on each plate. In addition, a concentration response of Thiamet G is calculated on each plate.

[2] = target: T2, recombinant human Meningioma Expressed Antigen 5 (MGEA5), also referred to as O-GlcNAcase (OGA) (Homo sapiens, UniProt O60502); experiment: OGA biochemical assay (inhibition of FM-GlcNAc hydrolysis, fluorescence); conditions: for Emax: read-out: ENZYMATIC Emax (%); for IC50: read-out: ENZYMATIC hOGA, pIC50 (converted)
T2 construct: Full length OGA enzyme was purchased at OriGene (cat # TP322411); purchased OriGene TP322411
T2 sequence (O60502 1-916): T1 sequence (O60502 1-916)
From the text: The assay is based on the inhibition of the hydrolysis of fluorescein mono-β-D-N-Acetyl-Glucosamine (FM-GlcNAc) (Mariappa et al. 2015, Biochem J 470:255) by the recombinant human Meningioma Expressed Antigen 5 (MGEA5), also referred to as O-GlcNAcase (OGA). The hydrolysis FM-GlcNAc (Marker Gene technologies, cat # M1485) results in the formation of B-D-N-glucosamineacetate and fluorescein. The fluorescence of the latter can be measured at excitation wavelength 485 nm and emission wavelength 538 nm. An increase in enzyme activity results in an increase in fluorescence signal. Full length OGA enzyme was purchased at OriGene (cat # TP322411). The enzyme was stored in 25 mM Tris.HCl, pH 7.3, 100 mM glycine, 10% glycerol at −20° C. Thiamet G and GlcNAcStatin were tested as reference compounds (Yuzwa et al. 2008 Nature Chemical Biology 4:483; Yuzwa et al. 2012 Nature Chemical Biology 8:393). The assay was performed in 200 mM Citrate/phosphate buffer supplemented with 0.005% Tween-20. 35.6 g Na2HPO4 2 H2O (Sigma, # C0759) were dissolved in 1 L water to obtain a 200 mM solution. 19.2 g citric acid (Merck, # 1.06580) was dissolved in 1 L water to obtain a 100 mM solution. pH of the sodium phosphate solution was adjusted with the citric acid solution to 7.2. The buffer to stop the reaction consists of a 500 mM Carbonate buffer, pH 11.0. 734 mg FM-GlcNAc were dissolved in 5.48 mL DMSO to obtain a 250 mM solution and was stored at −20° C. OGA was used at 2 nM concentration and FM-GlcNAc at a 100 uM final concentration. Dilutions were prepared in assay buffer.
50 nl of a compound dissolved in DMSO was dispensed on Black Proxiplate™ 384 Plus Assay plates (Perkin Elmer, #6008269) and 3 μl fl-OGA enzyme mix added subsequently. Plates were pre-incubated for 60 min at room temperature and then 2 μl FM-GlcNAc substrate mix added. […] Plates were briefly centrifuged for 1 min at 1000rpm and incubate at room temperature for 6 h. To stop the reaction 5 μl STOP buffer were added and plates centrifuge again 1 min at 1000 rpm.
Fluorescence was quantified in the Thermo Scientific Fluoroskan Ascent or the PerkinElmer EnVision with excitation wavelength 485 nm and emission wavelength 538 nm.
For analysis a best-fit curve is fitted by a minimum sum of squares method. From this an IC50 value and Hill coefficient was obtained. High control (no inhibitor) and low control (saturating concentrations of standard inhibitor) were used to define the minimum and maximum values.

Emax [1] [%] | EC50 [1] [nM] | Emax [2] [%] | IC50 [2] [nM] | ENZYMATIC hOGA; pIC50 [2] | SMILES
12 | > 1000 | 96 | 275 |  | Cc1cc(N2CCC3(CCN(Cc4ccc5nccnc5c4)C3)C2)nc(C)n1 (stereo not shown) [Product 22]
73.4 | 380 | 101 | 19.1 |  | CC(=O)Nc1ncc(CN2CCC3(CCN(c4cc(C)nc(C(F)(F)F)c4)C3)C2)s1 (stereo not shown) [Product 28]
74.1 | 380 | 101 | 18.2 |  | Cc1cc(N2CCC3(CCN(C(C)c4ccc5sc(C)nc5c4)C3)C2)cc(C)n1 (stereo not shown) [Product 29]
26.3 | > 1000 | 102 | 51.3 |  | Cc1cc(N2CCC3(CCN(Cc4ccc5sc(C)nc5c4)C3)C2)nc(C)n1 (stereo not shown) [Product 32]
6.9 | > 1000 | 96.2 | 69.2 |  | Cc1cc(N2CCC3(CCN(Cc4ccc5sc(C)nc5c4)C3)C2)cc(C(F)(F)F)n1 (stereo not shown) [Product 33]
85.3 | 148 | 102 |  | 7.44 | CC(=O)Nc1ncc(CN2CCC3(CCN(c4cc(C)ncc4C(F)(F)F)C3)C2)s1 (stereo not shown) [Product 34]
20.4 | > 1000 | 99 | 182 |  | Cc1cc(N2CCC3(CCN(C(C)c4cnc5c(c4)OCCO5)C3)C2)cc(C)n1 (stereo not shown) [Product 37]
87.3 | 77.6 | 101 |  | 7.87 | CC(=O)Nc1ncc(CN2CCC3(CCN(c4cc(C)ncc4C)C3)C2)s1 (stereo not shown) [Product 39]
56.1 | 794 | 101 | 26.3 |  | CC(=O)Nc1ncc(CN2CCC3(CCN(c4ccc(C)nc4C#N)C3)C2)s1 (stereo not shown) [Product 57]
62.6 | 251 | 101 | 9.12 |  | CCc1cc(N2CCC3(CCN(Cc4cnc(NC(C)=O)s4)C3)C2)cc(C)n1 (stereo not shown) [Product 64]
56.8 | 724 | 101 | 26.3 |  | CC(=O)Nc1ncc(CN2CCC3(CCN(c4ccnc(C(F)(F)F)c4)C3)C2)s1 (stereo not shown) [Product 65]

Second part, the molecule before the results:

SMILES | Emax [1] [%] | EC50 [1] [nM] | Emax [2] [%] | IC50 [2] [nM] | ENZYMATIC hOGA; pIC50 [2]
CNc1cncc(N2CCC3(CCN(Cc4cnc(NC(C)=O)s4)C3)C2)n1 (stereo not shown) [Product 26] | 25.1 | > 1000 | 101 | 61.7 | 
Cc1cc(N2CCC3(CCN(Cc4nc5ccccc5[nH]4)C3)C2)nc(C)n1 (stereo not shown) [Product 30] | 7.7 | > 1000 | 100 | 324 | 
Cc1cc(N2CCC3(CCN(C(C)c4ccc5scnc5c4)C3)C2)cc(C)n1 (stereo not shown) [Product 36] | 87.9 | 200 | 101 | 24 | 
Cc1cc(N2CCC3(CCN(C(C)c4ccc5c(c4)OCCO5)C3)C2)cc(C)n1 (stereo not shown) [Product 38] | 68.9 | 389 | 101 | 30.2 | 
CC(=O)Nc1ncc(CN2CCC3(CCN(c4ncc(C)cc4C)C3)C2)s1 (stereo not shown) [Product 49] | 88.8 | 45.7 | 99.6 |  | 8.41
CC(=O)Nc1ncc(CN2CCC3(CCN(c4cc(C)cnc4C)C3)C2)s1 (stereo not shown) [Product 50] | 87.8 | 186 | 101 | 25.1 | 
CC(=O)Nc1ncc(CN2CCC3(CCN(c4cnc(C)c(C)c4)C3)C2)s1 (stereo not shown) [Product 51] | 93 | 123 | 100 | 8.51 | 
CC(=O)Nc1ncc(CN2CCC3(CCN(c4ccnc(C)c4)C3)C2)s1 (stereo not shown) [Product 52] | 73.7 | 209 | 100 | 16.2 | 
COc1cc(N2CCC3(CCN(Cc4cnc(NC(C)=O)s4)C3)C2)cc(C)n1 (stereo not shown) [Product 58] | 86.3 | 56.2 | 102 | 5.89 | 
CCOc1cc(N2CCC3(CCN(Cc4cnc(NC(C)=O)s4)C3)C2)cc(C)n1 (stereo not shown) [Product 59] | 84.4 | 39.8 | 100 | 3.63 | 
CC(=O)Nc1ncc(CN2CCC3(CCN(c4c(C)cncc4C)C3)C2)s1 (stereo not shown) [Product 60] | 88.9 | 148 | 100 | 52.5 | 
CC(=O)Nc1ncc(CN2CCC3(CCN(c4cc(C)c(C)cn4)C3)C2)s1 (stereo not shown) [Product 61] | 94.6 | 117 | 102 | 28.2 | 
CC(=O)Nc1ncc(CN2CCC3(CCN(c4cc(C(F)(F)F)cc(C)n4)C3)C2)s1 (stereo not shown) [Product 62] | 22.2 | > 1000 | 100 | 42.7 | 
COc1cc(N2CCC3(CCN(Cc4cnc(NC(C)=O)s4)C3)C2)ccn1 (stereo not shown) [Product 63] | 75.1 | 219 | 102 | 6.92 | 
